Test results from paper doi:10.1101/2023.10.03.560722, “Drug Discovery in Low Data Regimes: Leveraging a Computational Pipeline for the Discovery of Novel SARS-CoV-2 Nsp14-MTase Inhibitors” (bioRxiv, 2024).
Like-named read-outs stand apart in the source and are kept apart here.

Tests used:
Experiment in all cases: human MTase selectivity panel
Format in all cases: biochemical
NSD1 = NSD1 (Homo sapiens, UniProt Q96L73)
SETD7 = target: T1, SETD7 (Homo sapiens, UniProt Q8WTS6)
T1 sequence (Q8WTS6 1-366): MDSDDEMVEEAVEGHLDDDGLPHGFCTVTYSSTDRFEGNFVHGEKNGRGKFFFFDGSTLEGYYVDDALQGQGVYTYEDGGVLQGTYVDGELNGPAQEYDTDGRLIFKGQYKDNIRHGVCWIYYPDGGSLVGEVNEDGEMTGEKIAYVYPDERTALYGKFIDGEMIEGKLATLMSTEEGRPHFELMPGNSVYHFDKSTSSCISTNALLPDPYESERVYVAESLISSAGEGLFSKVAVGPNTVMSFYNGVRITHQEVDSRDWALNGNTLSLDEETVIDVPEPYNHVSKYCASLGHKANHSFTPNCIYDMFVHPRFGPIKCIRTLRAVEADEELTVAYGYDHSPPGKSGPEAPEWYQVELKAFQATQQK

PRMT9 = target: T2, PRMT9 (Homo sapiens, UniProt Q6P2P2)
T2 sequence (Q6P2P2 1-845): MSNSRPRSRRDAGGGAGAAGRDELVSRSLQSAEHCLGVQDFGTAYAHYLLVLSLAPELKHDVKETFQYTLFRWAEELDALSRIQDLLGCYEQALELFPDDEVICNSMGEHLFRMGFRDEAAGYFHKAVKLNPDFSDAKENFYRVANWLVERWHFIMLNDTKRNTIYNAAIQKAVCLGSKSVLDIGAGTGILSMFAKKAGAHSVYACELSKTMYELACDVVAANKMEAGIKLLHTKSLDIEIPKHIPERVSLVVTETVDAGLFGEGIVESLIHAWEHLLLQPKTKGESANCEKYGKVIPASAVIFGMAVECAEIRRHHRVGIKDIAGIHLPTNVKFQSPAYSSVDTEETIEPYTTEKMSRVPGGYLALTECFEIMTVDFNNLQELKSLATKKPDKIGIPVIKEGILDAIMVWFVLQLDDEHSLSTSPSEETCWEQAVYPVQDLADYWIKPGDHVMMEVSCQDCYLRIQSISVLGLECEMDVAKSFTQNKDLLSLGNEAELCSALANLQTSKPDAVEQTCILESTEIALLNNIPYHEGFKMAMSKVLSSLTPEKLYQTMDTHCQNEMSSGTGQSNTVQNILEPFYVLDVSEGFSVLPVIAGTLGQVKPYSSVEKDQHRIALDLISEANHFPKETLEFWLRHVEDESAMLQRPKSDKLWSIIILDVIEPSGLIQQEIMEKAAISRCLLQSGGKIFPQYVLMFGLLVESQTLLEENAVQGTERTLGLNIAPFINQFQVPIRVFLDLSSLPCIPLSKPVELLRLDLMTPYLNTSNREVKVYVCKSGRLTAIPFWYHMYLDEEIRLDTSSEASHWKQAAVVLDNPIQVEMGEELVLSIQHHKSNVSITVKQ

PRMT8 = PRMT8 (Homo sapiens, UniProt Q9NR22)
PRMT8, sequence (Q9NR22 whole entry): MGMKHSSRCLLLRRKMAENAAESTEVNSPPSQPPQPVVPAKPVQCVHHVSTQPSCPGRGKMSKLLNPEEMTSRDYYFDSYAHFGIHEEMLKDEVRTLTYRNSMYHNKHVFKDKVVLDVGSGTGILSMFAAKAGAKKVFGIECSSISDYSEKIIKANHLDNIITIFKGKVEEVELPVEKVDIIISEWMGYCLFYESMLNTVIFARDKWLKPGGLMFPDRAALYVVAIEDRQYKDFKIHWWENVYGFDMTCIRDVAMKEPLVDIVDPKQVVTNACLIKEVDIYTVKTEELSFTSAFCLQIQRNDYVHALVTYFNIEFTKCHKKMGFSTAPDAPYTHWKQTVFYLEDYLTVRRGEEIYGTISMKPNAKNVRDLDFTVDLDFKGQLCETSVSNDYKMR

DOT1L = DOT1L (Homo sapiens, UniProt Q8TEK3)
DOT1L, sequence (Q8TEK3 whole entry): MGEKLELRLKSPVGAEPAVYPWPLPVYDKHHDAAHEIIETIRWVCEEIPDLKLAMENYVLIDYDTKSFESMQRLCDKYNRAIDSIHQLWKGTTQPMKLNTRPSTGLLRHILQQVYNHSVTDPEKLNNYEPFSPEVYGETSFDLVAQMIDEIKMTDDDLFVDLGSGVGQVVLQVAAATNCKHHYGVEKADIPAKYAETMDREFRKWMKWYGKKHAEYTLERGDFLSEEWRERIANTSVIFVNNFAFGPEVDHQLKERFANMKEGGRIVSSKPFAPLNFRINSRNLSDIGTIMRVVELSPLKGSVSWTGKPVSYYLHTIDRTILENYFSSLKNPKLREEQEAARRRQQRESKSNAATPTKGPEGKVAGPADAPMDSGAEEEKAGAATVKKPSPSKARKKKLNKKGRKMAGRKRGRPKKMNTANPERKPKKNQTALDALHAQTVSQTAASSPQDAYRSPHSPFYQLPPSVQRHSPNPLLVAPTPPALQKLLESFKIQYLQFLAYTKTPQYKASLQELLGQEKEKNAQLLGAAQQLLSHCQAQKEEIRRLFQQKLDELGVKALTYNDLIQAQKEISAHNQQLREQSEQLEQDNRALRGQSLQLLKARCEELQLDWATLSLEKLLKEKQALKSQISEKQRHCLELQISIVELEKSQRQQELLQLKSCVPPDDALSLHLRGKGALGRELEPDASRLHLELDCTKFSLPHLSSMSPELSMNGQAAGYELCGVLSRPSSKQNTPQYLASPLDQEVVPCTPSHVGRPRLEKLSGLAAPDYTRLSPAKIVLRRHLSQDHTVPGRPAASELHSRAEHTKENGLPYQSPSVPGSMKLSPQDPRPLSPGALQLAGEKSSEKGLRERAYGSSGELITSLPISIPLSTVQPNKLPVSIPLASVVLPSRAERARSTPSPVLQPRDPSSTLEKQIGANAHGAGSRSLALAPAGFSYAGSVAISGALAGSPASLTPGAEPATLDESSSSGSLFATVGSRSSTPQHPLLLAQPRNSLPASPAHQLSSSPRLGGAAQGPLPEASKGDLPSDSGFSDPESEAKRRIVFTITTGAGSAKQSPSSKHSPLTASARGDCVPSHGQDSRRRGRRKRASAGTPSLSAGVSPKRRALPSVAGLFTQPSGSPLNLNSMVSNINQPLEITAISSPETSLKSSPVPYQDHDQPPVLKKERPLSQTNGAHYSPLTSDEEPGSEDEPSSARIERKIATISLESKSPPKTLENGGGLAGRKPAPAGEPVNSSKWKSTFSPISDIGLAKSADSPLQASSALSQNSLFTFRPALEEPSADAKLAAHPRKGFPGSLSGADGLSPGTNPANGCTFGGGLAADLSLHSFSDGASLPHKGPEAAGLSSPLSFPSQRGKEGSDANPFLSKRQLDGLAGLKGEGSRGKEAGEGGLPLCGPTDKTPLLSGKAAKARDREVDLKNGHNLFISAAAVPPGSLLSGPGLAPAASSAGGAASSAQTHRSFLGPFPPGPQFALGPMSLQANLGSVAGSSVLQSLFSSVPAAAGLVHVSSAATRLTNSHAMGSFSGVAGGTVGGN

SETDB1 = SETDB1 (Homo sapiens, UniProt Q15047)
ASH1L = ASH1L (Homo sapiens, UniProt Q9NR48)
[1] = average ± SD, read-out: Activity (%) at 10 µM Average
[2] = read-out: Activity (%) at 10 µM Replicate 1
[3] = read-out: Activity (%) at 10 µM Replicate 2
[4] = read-out: Activity (%) at 10 µM Replicate 3

NSD1, sequence (Q96L73 whole entry): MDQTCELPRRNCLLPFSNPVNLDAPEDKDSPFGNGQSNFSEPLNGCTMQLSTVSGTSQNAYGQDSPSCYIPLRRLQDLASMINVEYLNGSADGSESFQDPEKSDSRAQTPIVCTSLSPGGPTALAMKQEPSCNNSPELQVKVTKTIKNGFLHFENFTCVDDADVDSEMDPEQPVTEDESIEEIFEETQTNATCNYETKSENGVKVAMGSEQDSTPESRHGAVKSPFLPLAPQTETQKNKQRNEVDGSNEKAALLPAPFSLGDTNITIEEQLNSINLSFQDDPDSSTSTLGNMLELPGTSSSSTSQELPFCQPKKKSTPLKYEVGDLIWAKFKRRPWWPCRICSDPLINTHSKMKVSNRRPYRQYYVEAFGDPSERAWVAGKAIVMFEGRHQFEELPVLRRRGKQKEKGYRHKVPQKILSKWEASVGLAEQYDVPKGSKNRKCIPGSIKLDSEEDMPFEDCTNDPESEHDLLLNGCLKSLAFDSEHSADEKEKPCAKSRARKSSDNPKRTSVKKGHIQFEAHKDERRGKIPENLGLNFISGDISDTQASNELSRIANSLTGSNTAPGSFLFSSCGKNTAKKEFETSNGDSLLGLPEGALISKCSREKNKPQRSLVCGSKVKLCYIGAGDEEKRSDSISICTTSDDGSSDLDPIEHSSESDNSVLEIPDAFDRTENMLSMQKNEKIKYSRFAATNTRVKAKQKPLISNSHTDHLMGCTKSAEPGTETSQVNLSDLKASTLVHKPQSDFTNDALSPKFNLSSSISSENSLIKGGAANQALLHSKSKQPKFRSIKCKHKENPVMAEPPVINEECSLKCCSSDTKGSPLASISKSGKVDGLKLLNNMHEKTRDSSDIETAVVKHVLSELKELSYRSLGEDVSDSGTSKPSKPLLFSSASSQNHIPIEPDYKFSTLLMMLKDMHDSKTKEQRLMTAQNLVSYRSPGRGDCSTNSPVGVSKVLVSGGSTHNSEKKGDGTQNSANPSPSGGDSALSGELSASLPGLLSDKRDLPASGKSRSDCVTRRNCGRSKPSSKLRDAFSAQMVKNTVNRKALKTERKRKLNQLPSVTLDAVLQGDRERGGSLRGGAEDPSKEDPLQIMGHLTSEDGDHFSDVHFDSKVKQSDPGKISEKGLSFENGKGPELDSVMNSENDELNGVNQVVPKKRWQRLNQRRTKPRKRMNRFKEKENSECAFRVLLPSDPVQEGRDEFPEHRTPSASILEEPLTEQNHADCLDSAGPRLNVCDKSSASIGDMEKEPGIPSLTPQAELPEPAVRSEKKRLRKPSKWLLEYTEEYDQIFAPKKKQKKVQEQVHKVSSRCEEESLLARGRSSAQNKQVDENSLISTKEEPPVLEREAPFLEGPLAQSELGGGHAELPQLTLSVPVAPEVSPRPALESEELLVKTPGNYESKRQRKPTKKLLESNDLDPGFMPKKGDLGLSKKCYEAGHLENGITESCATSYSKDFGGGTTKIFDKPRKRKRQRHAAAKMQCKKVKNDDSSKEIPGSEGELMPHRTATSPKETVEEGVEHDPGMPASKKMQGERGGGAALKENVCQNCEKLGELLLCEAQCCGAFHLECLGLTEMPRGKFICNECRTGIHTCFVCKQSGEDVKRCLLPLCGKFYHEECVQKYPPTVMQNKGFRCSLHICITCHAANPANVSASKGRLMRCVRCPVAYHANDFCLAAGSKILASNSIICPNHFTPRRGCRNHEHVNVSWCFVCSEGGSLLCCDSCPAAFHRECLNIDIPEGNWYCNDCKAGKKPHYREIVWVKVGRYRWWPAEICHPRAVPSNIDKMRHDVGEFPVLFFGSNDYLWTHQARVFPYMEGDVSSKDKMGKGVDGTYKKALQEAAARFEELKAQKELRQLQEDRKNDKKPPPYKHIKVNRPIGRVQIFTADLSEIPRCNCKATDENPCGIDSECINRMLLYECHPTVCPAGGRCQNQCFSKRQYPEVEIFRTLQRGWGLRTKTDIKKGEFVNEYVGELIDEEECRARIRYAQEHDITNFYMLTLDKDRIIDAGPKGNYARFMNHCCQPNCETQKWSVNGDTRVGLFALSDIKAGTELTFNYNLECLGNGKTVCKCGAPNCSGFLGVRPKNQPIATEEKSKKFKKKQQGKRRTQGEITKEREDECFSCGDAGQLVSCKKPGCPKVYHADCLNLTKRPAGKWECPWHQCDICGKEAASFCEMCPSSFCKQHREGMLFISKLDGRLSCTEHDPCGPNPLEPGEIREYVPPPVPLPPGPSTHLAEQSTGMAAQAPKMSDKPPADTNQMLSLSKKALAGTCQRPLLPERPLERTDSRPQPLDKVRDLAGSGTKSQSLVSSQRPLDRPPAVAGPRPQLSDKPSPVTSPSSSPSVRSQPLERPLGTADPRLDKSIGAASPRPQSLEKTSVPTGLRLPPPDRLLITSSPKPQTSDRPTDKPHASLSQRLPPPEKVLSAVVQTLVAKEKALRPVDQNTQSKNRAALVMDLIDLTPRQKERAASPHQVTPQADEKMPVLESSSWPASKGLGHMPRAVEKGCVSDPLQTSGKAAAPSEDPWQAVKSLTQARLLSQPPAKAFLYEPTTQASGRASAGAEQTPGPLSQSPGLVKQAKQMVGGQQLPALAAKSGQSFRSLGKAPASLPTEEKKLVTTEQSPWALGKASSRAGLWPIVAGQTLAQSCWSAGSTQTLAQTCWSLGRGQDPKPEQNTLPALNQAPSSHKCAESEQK

`Nc1ncnc2c1ncn2[C@@H]1O[C@H](CSCc2ccc(Cl)cc2)[C@@H](O)[C@H]1O` [NSC620333] was tested, and the activity at 10 µM (NSD1; [1]) was 104 ± 2%, the activity at 10 µM (NSD1; [2]) was 103% and the activity at 10 µM (NSD1; [3]) was 102%. The activity at 10 µM (NSD1; [4]) was 107%, the activity at 10 µM (SETD7; [1]) was 87 ± 1% and the activity at 10 µM (SETD7; [2]) was 85%. It also gave an activity at 10 µM (SETD7; [3]) of 88%, an activity at 10 µM (SETD7; [4]) of 87% and an activity at 10 µM (PRMT9; [1]) of 117 ± 3%. For the same compound, the activity at 10 µM (PRMT9; [2]) was 118%, the activity at 10 µM (PRMT9; [3]) was 118% and the activity at 10 µM (PRMT9; [4]) was 113%. The activity at 10 µM (PRMT8; [1]) was 96 ± 3%, the activity at 10 µM (PRMT8; [2]) was 97% and the activity at 10 µM (PRMT8; [3]) was 99%. The activity at 10 µM (PRMT8; [4]) was 93%, the activity at 10 µM (DOT1L; [1]) was 93 ± 9% and the activity at 10 µM (DOT1L; [2]) was 103%. The activity at 10 µM (DOT1L; [3]) was 90%, the activity at 10 µM (DOT1L; [4]) was 86% and the activity at 10 µM (SETDB1; [1]) was 103 ± 3%. For the same compound, the activity at 10 µM (SETDB1; [2]) was 104%, the activity at 10 µM (SETDB1; [3]) was 106% and the activity at 10 µM (SETDB1; [4]) was 100%. The activity at 10 µM (ASH1L; [1]) was 105 ± 8%, the activity at 10 µM (ASH1L; [2]) was 113% and the activity at 10 µM (ASH1L; [3]) was 97%. For the same compound, the activity at 10 µM (ASH1L; [4]) was 104%.
